Laboratory results from ChEMBL document CHEMBL1140678, “New triterpene glucosides, oligoporins A-C, from Oligoporus tephroleucus protect DNA from Fenton reaction” (Bioorg Med Chem Lett, 2007).

Key:
[1] = test system: Escherichia coli; test: Inhibition of fenton reaction-induced pBR322 supercoiled DNA damage; format: functional
[2] = test system: Escherichia coli; test: Inhibition of fenton reaction-induced pBR322 supercoiled DNA damage at 1 mM; format: functional

## C/C(=C/CC[C@@H](C)[C@H]1CC[C@@]2(C)C3=CC[C@H]4C(C)(C)[C@H](O)CC[C@]4(C)C3=C[C@@H](O[C@@H]3O[C@H](CO)[C@@H](O)[C@H](O)[C@H]3O)[C@]12C)C(=O)O
[1]
  Activity: Dose-dependent effect

## C/C(=C/CC[C@@H](C)[C@H]1CC[C@@]2(C)C3=C(C[C@@H](O[C@@H]4O[C@H](CO)[C@@H](O)[C@H](O)[C@H]4O)[C@]12C)[C@@]1(C)CC[C@@H](O)C(C)(C)[C@@H]1CC3=O)C(=O)O
[1]
  Activity: Dose-dependent effect
[2]
  inhibition: 90%

## C/C(=C/CC[C@@H](C)[C@H]1CC[C@@]2(C)C3=CC[C@H]4C(C)(C)C(=O)CC[C@]4(C)C3=C[C@@H](O[C@@H]3O[C@H](CO)[C@@H](O)[C@H](O)[C@H]3O)[C@]12C)C(=O)O
[1]
  Activity: Dose-dependent effect
